Measurements reported in patent US10774082B2, “Quinazoline compound” (Astellas Pharma Inc., priority 2017, dated 2020).
pIC50: −log10 of the molar value.

Columns and labels:
pERK in NCI-H1373 tumor = assay: Intratumoral pERK inhibitory action in NCI-H1373 tumor of nude mice (TR-FRET); type: in vivo, mouse; conditions: Mus musculus, 6 h, tumor six hours after administration
Procedure: Evaluation of Intratumoral pERK Inhibitory Action
The phosphorylation amount of ERK in tumor sample after administration of test compound was examined by using pERK measurement kit (Advanced ERK phospho-T202/Y204 kit, Cisbio co., Ltd) through a TR-FRET method.
2.0 to 5.0×10^6 NCI-H1373 cells were prepared by using a solution in which an equivalent amount of Matrigel (Becton. Dickinson and Company) was added to PBS, were injected subcutaneously in a volume of 100 μL and planted to male nude mice of 4-5 weeks old (CAnN.Cg-Foxn 1 nu/CrlCrlj (nu/nu), Charles River Laboratories Japan, Inc.), and then the male nude mice were used for the test 15 to 26 days later. The test was conducted with three mice in a solvent group and three mice in a test compound administration group, and the test compounds were prepared by using a solvent such that the dosage thereof is as indicated in Table 4. The test compound was administered subcutaneously or orally. For subcutaneous administration, physiological saline supplemented with equimolar hydrochloric acid was used as a solvent. For oral administration, 6% 2-hydroxypropyl-β-cyclodextrin (Sigma-Aldrich Co. LLC) was used as a solvent. Six hours after the administration, a tumor was excised from a cervical dislocated mouse under isoflurane anesthesia, and a part thereof was put into a 2 mL Eppendorf tube and frozen using liquid nitrogen. The tumor sample was stored in a deep freezer at −80° C. until it was subjected to the pERK measurement test.
500 μL of lysis buffer 1 (Phospholysis buffer [Cisbio Co., Ltd], Complete EDTA free [Roche Diagnostics K.K.], Phosphatase inhibitor cocktail 2 [Sigma-Aldrich Co. LLC]) and one bead (5 mm YTZ ball [Nikkato Corp.]) was added to the tumor sample, and crushed (frequency 25/s for 3 minutes) by using Tissue Lyser II (QIAGEN GmbH). The whole amount was transferred to a new tube and centrifuged (20,400×g for 10 minutes, 4° C.) by using a micro amount high speed cooling centrifuge so as to obtain a tumor lysate which is a supernatant. Protein quantification of tumor lysate was performed by using a protein quantification kit (Pierce 660 nm Protein Assay Kit [Thermo Fisher Scientific Inc.]), and each sample was diluted by using lysis buffer 2 (Phosphorysis buffer [Cisbio Co., Ltd], Blocking Agent [attached to pERK measurement kit]) such that the amount thereof is to be a final concentration of 0.5 μg/μL.
Each of p-ERK1/2 Cryptate antibody and p-ERK1/2 d2 antibody (attached to pERK measurement kit) was diluted 20-fold with each detection buffer (attached to pERK measurement kit), and thereby a mixed solution of these two types of antibodies was prepared. A mixed solution of antibody was added to a 384 well plate at a volume of 4 μL/well. Further, tumor lysate diluted to 0.5 μg/μL was added at a volume of 16 μL/well. After standing at room temperature in a wet box for about 17 hours, the fluorescence intensity at 620 nm and 665 nm was measured under the condition of excitation wavelength of 337 nm by using EnVision 2103 Multilabel Reader (PerkinElmer Co., Ltd.).

[1] = molecular target: T1, KRAS G12C/SOS/c-Raf complex (Homo sapiens, UniProt P01116, G12C); assay: KRAS G12C/SOS/c-Raf complex formation inhibitory action (TR-FRET); type: biochemical; conditions: one hour at room temperature, read-out: IC50 (KRAS G12C/SOS/c-Raf complex formation inhibition)
T1 construct: Biotinylated AviTag-KRAS G12C (amino acid region 1-185, GDP)
How it was run: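 Biotin-AviTag KRAS G12C (1-185, GDP-bound) was mixed with compound (4,000 to 4 nM stock dilutions), SOS (564-1049), GST-c-Raf (51-131) and GTP in pH 7.4 HEPES/NaCl/MgCl2/Tween buffer for 1 h at room temperature. Complex formation was read by TR-FRET with Eu-streptavidin and ULight-anti-GST (ex 337 nm, em 620/665 nm).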

[2] = test system: ERK phosphorylation (Thr 202/Tyr 204) in NCI-H1373 cells; assay: ERK phosphorylation inhibitory action in NCI-H1373 (Cell ELISA); type: cell-based, Human; conditions: Homo sapiens, NCI-H1373, 2 h, NCI-H1373 cells, cultured for 2 hours, 100% = 1 μM Trametinib; read-out: IC50 (ERK phosphorylation inhibition)
How it was run: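 KRAS G12C NCI-H1373 cells (2×10^4/well) were treated with compound (six points, 1,000–0.3 nM final) for 2 h. Phospho-ERK Thr202/Tyr204 was measured by in-cell ELISA with an IRDye 800CW secondary antibody. IC50 was fitted by sigmoid-Emax regression against DMSO (0%) and 1 μM trametinib (100%).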

NCI-H1373 cells = assay: Anchorage-independent cell proliferation inhibitory action, NCI-H1373 spheroid three-dimensional culture; type: cell-based, Human; conditions: Homo sapiens, NCI-H1373, 144 h, NCI-H1373 spheroid, six days, CellTiter Glo; read-out: IC50 (anchorage-independent cell proliferation inhibition)
How it was run: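 KRAS G12C NCI-H1373 cells were grown as spheroids in low-attachment U-bottom wells and treated the next day with compound, six points from 1,000 to 0.3 nM final. After six days at 37°C, viability was read by CellTiter-Glo luminescence. IC50 was fitted by Sigmoid-Emax regression, with DMSO set as 0% and cell-free medium as 100% inhibition.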

T1 sequence (P01116 1-185 isoform P01116-2 G12C, one chain of several): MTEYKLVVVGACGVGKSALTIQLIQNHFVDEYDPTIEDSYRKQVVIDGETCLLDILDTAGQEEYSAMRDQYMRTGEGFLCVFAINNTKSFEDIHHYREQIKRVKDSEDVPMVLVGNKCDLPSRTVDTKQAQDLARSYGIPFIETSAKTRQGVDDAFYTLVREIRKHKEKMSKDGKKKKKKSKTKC

Compound | pIC50 [1] | pIC50 [2] | pIC50 (NCI-H1373 cells) | inhibition at 3 mg/kg (pERK in NCI-H1373 tumor; NCI-H1373, sc, Subcutaneous administration, 3 mg/kg, read-out: pERK inhibition (%)) [%] | inhibition at 10 mg/kg (pERK in NCI-H1373 tumor; NCI-H1373, po, Oral administration, 10 mg/kg) [%]
C=CC(=O)N1CC2(CCN(c3nc(OC4CCN(C)CC4)nc4c(OCC)c(-c5c(C)ccc6[nH]ncc56)c(C=C)cc34)CC2)C1 [Ex 5] | 7.51 | – | – | 72 | –
C=CC(=O)N1CC2(CCN(c3nc(OC4CCN(C)CC4)nc4c(OCc5ccc(OC(F)F)cc5)c(-c5c(C)ccc6[nH]ncc56)c(C=C)cc34)CC2)C1 [Example 66] | 7.33 | 8.01 | 7.41 | – | –
C=CC(=O)N1CC2(CCN(c3nc(OC4CCN(CCN5CCCC5)CC4)nc4c(OCC(F)(F)F)c(-c5c(C)ccc6[nH]ncc56)c(C=C)cc34)CC2)C1 [Example 73] | 7.36 | 7.82 | 7.55 | – | –
C=CC(=O)N1CC2(CCN(c3nc(OC4CCN(CC)CC4)nc4c(OC5CCC5)c(-c5c(C)ccc6[nH]ncc56)c(C=C)cc34)CC2)C1 [Example 20] | 7.49 | 8.19 | 7.96 | – | –

Second part, led by results:

pIC50 [1] | pIC50 [2] | pIC50 (NCI-H1373 cells) | Compound | inhibition at 3 mg/kg (pERK in NCI-H1373 tumor; NCI-H1373, sc, Subcutaneous administration, 3 mg/kg, read-out: pERK inhibition (%)) [%] | inhibition at 10 mg/kg (pERK in NCI-H1373 tumor; NCI-H1373, po, Oral administration, 10 mg/kg) [%]
7.40 | 7.85 | 8.00 | C=CC(=O)N1CC2(CCN(c3nc(OCCCN(C)C)nc4c(OCC(F)(F)F)c(-c5c(C)ccc6[nH]ncc56)c(C=C)cc34)CC2)C1 [Example 71] | – | –
7.35 | – | 8.08 | C=CC(=O)N1CC2(CCN(c3nc(OC4CCN(CC(C)(C)O)CC4)nc4c(OCC(F)(F)F)c(-c5c(C)ccc6[nH]ncc56)c(C=C)cc34)CC2)C1 [Ex 31] | – | 51
7.38 | 7.66 | 7.41 | C=CC(=O)N1CC2(CCN(c3nc(CC4CCN(CCOC)CC4)nc4c(OCC(F)(F)F)c(-c5c(C)ccc6[nH]ncc56)c(C=C)cc34)CC2)C1 [Example 91] | – | –
